The record followed here is PubChem BioAssay AID1996.

≈ marks a conversion by molar mass, not a printed value.

For this data set the following is noted: buffer; pH 7.4; 200.0 µM.
With `COc1ccc(CNc2nc(C)cc(C)c2C#N)cc1`, the solubility (kinetic) is 0.0006 mg/mL (≈ 2.24 µM).

`COc1ccc(Cl)cc1NS(=O)(=O)N1CCOCC1` registered a kinetic solubility of over 0.046 mg/mL.

The compound `CN(C)C(CNC(=O)c1ccc2ccccc2n1)c1ccccc1` (configuration not stated) displayed a solubility (kinetic) of 0.0275 mg/mL (≈ 86.1 µM).

As for `O=C1C(=O)N(CC(=O)N2CCCC2)c2ccccc21`, the solubility (kinetic) turned out to be 0.0382 mg/mL (≈ 148 µM).

For the compound `Nc1ccc(-c2nc3cc(N)ccc3n2CCO)cc1`, the kinetic solubility is over 0.0402 mg/mL. The compound `COc1cccc(NC(=O)CN2CCc3ccccc3C2)c1` registered a solubility (kinetic) of 0.0427 mg/mL (≈ 144 µM). To `Cc1ccc(C(=O)COC(=O)c2cc(=O)[nH]c3ccccc23)cc1` belongs 0.0011 mg/mL (≈ 3.42 µM); to `Cc1ccc(C#N)c(SCc2cccc(Br)c2)n1`, under 0.0003 mg/mL. The compound `CCOc1ccc(N(C)Cc2cc(=O)oc3ccc(OCC)cc23)cc1` had a solubility (kinetic) of 0.0023 mg/mL (≈ 6.51 µM). The compound `Cc1cc(C)nc(SCc2ccc(Br)cc2)n1` gave a solubility (kinetic) of 0.0015 mg/mL (≈ 4.85 µM).

Regarding `CN(Cc1cccc(F)c1)C(=O)c1cc(=O)[nH]c2ccccc12`, the kinetic solubility amounted to 0.0443 mg/mL (≈ 143 µM). To `O=C(c1cccnc1)N1CCCC(Nc2ccc(F)cc2)C1` (configuration not stated) belongs 0.0416 mg/mL (≈ 139 µM); to `CC1(C)Cc2nc3[nH]c(=S)[nH]c(=O)c3cc2CO1`, over 0.0395 mg/mL.

As to `CC1(C)CC(C(=O)Nc2ccccc2)C(=O)O1` (configuration not stated), the solubility (kinetic) is over 0.035 mg/mL.

`COc1ccc(-c2ncncc2-c2ccc(Cl)cc2)c(O)c1` came in with a solubility (kinetic) of 0.0011 mg/mL (≈ 3.52 µM). Regarding `CC(C)=CC1C(C(=O)NCCc2ccccc2)C1(C)C` (configuration not stated), the solubility (kinetic) was determined as 0.0276 mg/mL (≈ 102 µM). Under `CC1C/C(=N\NC(=O)c2cccnc2)CC(C)(C)C1` (configuration not stated) stands over 0.0389 mg/mL; under `N#CCNc1ccc([N+](=O)[O-])cc1C#N`, 0.0303 mg/mL (≈ 150 µM); under `COc1ccc(-n2nc(C(=O)N(C)C)nc2-c2ccccc2)cc1`, over 0.0484 mg/mL. Under `N#CC1=C(N)Oc2cc(O)c(Cl)cc2C1c1cccnc1` (configuration not stated) stands 0.0112 mg/mL (≈ 37.4 µM); under `OC1(C(F)(F)F)CC(c2ccc3ccccc3c2)=NO1` (configuration not stated), over 0.0422 mg/mL. To `CCc1cccc(CC)c1NC(=O)CNCc1cccs1` belongs 0.0187 mg/mL (≈ 61.8 µM); to `COc1ccc2c(c1)-c1nc(/N=C/c3c(O)ccc4ccccc34)sc1CC2`, 0.0271 mg/mL (≈ 70.1 µM). `O=C(CN1CCOCC1)NN=C(c1ccccc1)c1ccccc1` came in with a solubility (kinetic) of over 0.0485 mg/mL. Compound `CCCOc1ccc(C(=O)NC2CCSc3ccccc32)cc1` (configuration not stated) had a solubility (kinetic) of 0.0016 mg/mL (≈ 4.89 µM). `CCCS(=O)(=O)C/C(N)=N/OC(=O)c1ccccc1Cl`: the solubility (kinetic) was determined as 0.038 mg/mL (≈ 119 µM). Compound `CCN(CC)C(=O)CN1C(=O)NC2(CCc3ccccc3C2)C1=O` (configuration not stated) yielded a solubility (kinetic) of over 0.0494 mg/mL. The compound `N/C(=N\O)c1ccccc1-n1cccc1` came in with a solubility (kinetic) of over 0.0302 mg/mL. To `CC(C)CCOc1ccc(C2CC(=O)N(C)C2=O)cc1` (configuration not stated) belongs 0.0403 mg/mL (≈ 146 µM). Consider `Cc1cc(O)c(C(=O)/C=C/c2cccc([N+](=O)[O-])c2)c(=O)o1`, for which the solubility (kinetic) is over 0.0452 mg/mL. To `Cc1ccc(N2C(=O)CCC2=O)c(C)c1` belongs 0.028 mg/mL (≈ 138 µM); to `CCn1c(C)nnc1SCC(=O)Nc1ccccc1Cl`, over 0.0466 mg/mL. Under `O=Cc1ccnc(-c2ccc(OC(=O)c3ccco3)cc2)n1` stands 0.0331 mg/mL (≈ 113 µM); under `COc1ccc(S(=O)(=O)NCCOc2ccccc2)cc1F`, 0.0024 mg/mL (≈ 7.38 µM); under `O=[N+]([O-])c1cc(-c2cnc3ccccc3n2)ccc1Cl`, under 0.0002 mg/mL. To `CCCNC(=O)c1oc2ccc3c(c2c1C)C(O)CC(C)(C)O3` (configuration not stated) belongs over 0.0476 mg/mL; to `CCC(CO)NCc1ccccc1OC(C)C.Cl` (configuration not stated), over 0.0411 mg/mL; to `Cn1c(/C=C/c2ccc(Br)cc2)nc2ccccc2c1=O`, under 0.0004 mg/mL. For the compound `CN(CC12CC3CC(CC(C3)C1)C2)C(=O)c1ccco1`, the solubility (kinetic) was determined as 0.0378 mg/mL (≈ 138 µM). To `Nc1nnc(SCC(=O)c2cccc([N+](=O)[O-])c2)s1` belongs over 0.0444 mg/mL; to `O=S(=O)(c1ccccc1)N1CCc2ccccc21`, 0.002 mg/mL (≈ 7.71 µM).

As to `NC(=O)c1ccc(NC(=O)COc2cccc3ccccc23)cc1`, the solubility (kinetic) amounted to 0.0011 mg/mL (≈ 3.43 µM). Regarding `CC1NCCC2(O)CCCCC12` (configuration not stated), the solubility (kinetic) was over 0.0254 mg/mL. Under `CC(C)Oc1ccc(C2CC(=O)NC2=O)cc1` (configuration not stated) stands over 0.035 mg/mL; under `CC(C)OCCCNC(=O)NC(=O)c1ccc(Cl)cc1`, 0.0183 mg/mL (≈ 61.3 µM).

Compound `Cl.Oc1ccc(CC2(N3CCCC3)CCCCC2)cc1` came in with a solubility (kinetic) of 0.0405 mg/mL. Under `Cc1cnc(C(=O)OCc2nc3ccccc3o2)cn1` stands over 0.0404 mg/mL.

The compound `CCOC(=O)c1[nH]c(C)c(C(=O)OC)c1C` returned a solubility (kinetic) of over 0.0338 mg/mL.

Consider `CN(C)CCCOC(=O)c1sc2ccccc2c1Cl.Cl`, for which the kinetic solubility is over 0.0501 mg/mL. Under `O=C(O)c1cc(-c2ccc(Cl)cc2)n(-c2ccc(F)cc2)n1` stands over 0.0475 mg/mL; under `CC1CC(C)(C)NC(=S)N1CCCC(=O)Nc1ccccc1F` (configuration not stated), over 0.0506 mg/mL.

As to `CC(=O)c1cccc(NC(=O)c2cccc(NC(=O)c3ccco3)c2)c1`, the kinetic solubility is under 0.0004 mg/mL. To `Brc1cccc2sc(N3CCCC3)nc12` belongs 0.0052 mg/mL (≈ 18.4 µM). In turn, `O=[N+]([O-])c1ccc(C(O)C[n+]2ccccc2)cc1.[I-]` (configuration not stated) displayed a kinetic solubility of 0.0521 mg/mL. In the case of `COc1ccc([C@@H]2Sc3ccccc3NC(=O)[C@@H]2O)cc1`, the solubility (kinetic) was 0.0062 mg/mL (≈ 20.6 µM). Under `Cn1c(=O)c([N+](=O)[O-])c(-n2ccnc2)c2ccccc21` stands 0.0374 mg/mL (≈ 138 µM); under `C[C@H](NCc1c[nH]c2ccccc12)c1ccccc1`, over 0.0376 mg/mL. To `N#Cc1ccc(C2N=C(c3ccccc3)NO2)cc1` (configuration not stated) belongs 0.0153 mg/mL (≈ 61.4 µM); to `COc1ccc(-c2csc3ncnc(NCCCO)c23)cc1`, 0.0422 mg/mL (≈ 134 µM).

`CCOc1ccc(C(=O)N(CN2CCCC2=O)c2cccc(Cl)c2)cc1` yielded a kinetic solubility of over 0.0559 mg/mL. Take `CC(=O)Nc1ccc(S(=O)(=O)NC2CC3CCC2C3)cc1` (configuration not stated): the kinetic solubility was over 0.0463 mg/mL. To `CN1CCN(C(=O)c2ccc(CNS(=O)(=O)c3ccc(F)c(Cl)c3)cc2)CC1` belongs 0.0594 mg/mL (≈ 139 µM); to `COc1ccc(CN2CCc3ccccc3C2)cc1Br`, 0.0113 mg/mL (≈ 34 µM). Take `O=C(NC1CCCCCC1)c1ccco1`: the kinetic solubility was over 0.0311 mg/mL. For `O=C(NCc1ccccc1Cl)c1ccc2c(c1)OCO2`, the kinetic solubility was over 0.0435 mg/mL. `Cn1ccnc1SCC(=O)c1ccc(OC(F)F)cc1`: the kinetic solubility is over 0.0447 mg/mL. Consider `Cc1cc(=O)c(C(=O)O)nn1-c1cccc(C(F)(F)F)c1`, for which the solubility (kinetic) was over 0.0447 mg/mL. `Cc1ccc(NS(=O)(=O)c2cccc3nsnc23)cc1C` gave a solubility (kinetic) of 0.0392 mg/mL (≈ 123 µM).

With `Cc1ccc(NC(=O)COC(=O)CNC(=O)c2ccco2)cc1`, the solubility (kinetic) was determined as 0.0447 mg/mL (≈ 141 µM).

For `COc1cc(C(=O)Nc2nc3ccccc3[nH]2)ccc1OC(F)F`, the kinetic solubility was found to be 0.001 mg/mL (≈ 3 µM). Regarding `Nc1nc(-c2cccs2)c(-c2cccs2)s1`, the kinetic solubility was determined as 0.0058 mg/mL (≈ 21.9 µM). The compound `CCC1CCCCN1C(=O)COC(=O)c1cccs1` (configuration not stated) returned a solubility (kinetic) of over 0.0422 mg/mL.

In turn, `Cc1c(C(=O)N2CCC[C@H]2C(N)=O)oc2c(F)cccc12` yielded a kinetic solubility of 0.0381 mg/mL (≈ 131 µM). `Cn1c(=NC(=O)COc2ccccc2)sc2cc(F)cc(F)c21` yielded a kinetic solubility of under 0.0004 mg/mL. To `Cc1cc(C(=O)NC(C)C2CCCO2)no1` (configuration not stated) belongs over 0.0336 mg/mL; to `Cc1cc(NC(=O)CN2CCC(C)CC2)no1.O=C(O)C(=O)O`, over 0.0491 mg/mL. Under `Cc1ccc(C(=O)Nc2ncccc2O)o1` stands over 0.0327 mg/mL.
